Experimental data reported in the supplement of paper PMC10307832.

Key:
Assay in all cases: relative viability (nuclei count vs DMSO), 5 days (fraction); higher = more cells survive
Apatinib + Palbociclib = compound: N#CC1(c2ccc(NC(=O)c3cccnc3NCc3ccncc3)cc2)CCCC1 [Apatinib] + CC(=O)c1c(C)c2cnc(Nc3ccc(N4CCNCC4)cn3)nc2n(C2CCCC2)c1=O [Palbociclib] (partner 0.5 µM)
Outline: (§1)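 Each reported value is a median over duplicate plates. It expresses relative viability: treated-well nuclei count divided by vehicle-well nuclei count. Lung cancer cell lines in 1536-well plates were dosed by pin tool a day after seeding, alone with one drug or with a fixed anchor-drug dose plus five library-drug doses (not always all listed) in √10 steps, and nuclei were counted after 5 days.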

Apatinib + Tozasertib = compound: N#CC1(c2ccc(NC(=O)c3cccnc3NCc3ccncc3)cc2)CCCC1 [Apatinib] + Cc1cc(Nc2cc(N3CCN(C)CC3)nc(Sc3ccc(NC(=O)C4CC4)cc3)n2)n[nH]1 [Tozasertib] (partner 0.1 µM)
Outline: as §1

Apatinib + Alpelisib = compound: N#CC1(c2ccc(NC(=O)c3cccnc3NCc3ccncc3)cc2)CCCC1 [Apatinib] + Cc1nc(NC(=O)N2CCC[C@H]2C(N)=O)sc1-c1ccnc(C(C)(C)C(F)(F)F)c1 [Alpelisib] (partner 2 µM)
Outline: as §1

Apatinib + Phenformin = compound: N#CC1(c2ccc(NC(=O)c3cccnc3NCc3ccncc3)cc2)CCCC1 [Apatinib] + N=C(N)NC(=N)NCCc1ccccc1 [Phenformin] (partner 250 µM)
Outline: as §1

Cell Line	relative viability (Apatinib + Palbociclib; first compound 0.08 µM)	relative viability (Apatinib + Palbociclib; first compound 0.253 µM)	relative viability (Apatinib + Palbociclib; first compound 0.8 µM)	relative viability (Apatinib + Palbociclib; first compound 2.53 µM)	relative viability (Apatinib + Palbociclib; first compound 8 µM)	relative viability (Apatinib + Tozasertib; first compound 0.08 µM)	relative viability (Apatinib + Tozasertib; first compound 0.253 µM)	relative viability (Apatinib + Tozasertib; first compound 0.8 µM)	relative viability (Apatinib + Tozasertib; first compound 2.53 µM)	relative viability (Apatinib + Tozasertib; first compound 8 µM)	relative viability (Apatinib + Alpelisib; first compound 0.08 µM)	relative viability (Apatinib + Alpelisib; first compound 0.253 µM)	relative viability (Apatinib + Alpelisib; first compound 0.8 µM)	relative viability (Apatinib + Alpelisib; first compound 2.53 µM)	relative viability (Apatinib + Alpelisib; first compound 8 µM)	relative viability (Apatinib + Phenformin; first compound 0.08 µM)	relative viability (Apatinib + Phenformin; first compound 0.253 µM)	relative viability (Apatinib + Phenformin; first compound 0.8 µM)	relative viability (Apatinib + Phenformin; first compound 2.53 µM)	relative viability (Apatinib + Phenformin; first compound 8 µM)
NCI-H23	0.561	0.57	0.575	0.409	0.424	0.374	0.516	0.339	0.243	0.197	0.665	0.911	0.595	0.627	0.558	0.851	0.733	0.735	0.717	0.705
NCI-H322M	0.464	0.539	0.499	0.51	0.57	0.454	0.426	0.437	0.441	0.503	0.782	0.744	0.766	0.89	0.782	0.831	0.76	0.778	0.814	0.784
NCI-H358	0.137	0.133	0.123	0.124	0.123	0.113	0.103	0.0953	0.108	0.0888	0.87	0.914	0.831	0.882	0.781	0.316	0.353	0.321	0.377	0.383
NCI-H441	0.234	0.217	0.219	0.211	0.212	0.672	0.569	0.538	0.533	0.428	0.872	0.82	0.752	0.726	0.421	0.849	0.762	0.827	0.784	0.76
NCI-H460	0.188	0.191	0.103	0.182	0.137	0.576	0.51	0.223	0.0517	0.053	0.557	0.478	0.475	0.498	0.479	0.494	0.479	0.489	0.39	0.385
NCI-H520	0.227	0.238	0.25	0.197	0.214	0.445	0.427	0.437	0.409	0.417	0.924	0.865	0.918	0.685	0.633	0.661	0.567	0.56	0.391	0.391
NCI-H647	0.516	0.451	0.336	0.384	0.303	0.288	0.503	0.19	0.144	0.206	1.39	1.21	1.1	0.799	0.706	0.561	0.64	0.427	0.544	0.319
NCI-H650	0.316	0.337	0.372	0.272	0.264	0.769	0.777	0.724	0.644	0.486	1.23	1.25	1.04	1.03	0.987	0.405	0.413	0.447	0.385	0.374
NCI-H661	0.388	0.405	0.417	0.417	0.356	0.333	0.325	0.357	0.388	0.392	0.576	0.43	0.564	0.623	0.597	0.279	0.273	0.273	0.263	0.277
NCI-H727	0.731	–	0.642	0.653	0.714	0.676	0.631	0.545	0.559	0.488	0.64	0.625	0.53	0.512	0.506	0.566	0.542	0.528	0.539	0.514
NCI-H838	0.229	0.261	0.206	0.215	0.217	0.301	0.302	0.248	0.222	0.213	1.06	1.03	0.935	0.958	0.942	0.716	0.686	0.521	0.507	0.518
NCI-H1355	0.379	0.394	0.367	0.378	0.366	0.576	0.611	0.474	0.33	0.217	0.884	0.823	0.816	0.804	0.67	0.438	0.443	0.447	0.406	0.385
NCI-H1395	0.632	0.687	0.644	0.585	0.602	0.734	0.832	0.722	0.661	0.52	1.23	1.16	1.06	1.18	0.931	0.464	0.419	0.454	0.412	0.459
NCI-H1437	0.314	0.3	0.277	0.254	0.209	0.453	0.461	0.393	0.333	0.281	1.03	1.11	0.911	0.912	0.644	0.354	0.283	0.278	0.252	0.251
NCI-H1651	0.516	0.522	0.489	0.514	0.459	0.753	0.756	0.717	0.34	0.362	1.03	1.11	0.786	0.851	0.83	0.319	0.322	0.309	0.288	0.316
NCI-H1666	0.675	0.638	0.655	0.629	0.626	0.595	0.583	0.501	0.615	0.526	0.943	1.01	0.936	0.979	0.943	0.567	0.572	0.6	0.53	0.564
